{"source": "patent EP4663640A1", "about": "(Shanghai Institute of Materia Medica, Chinese Academy of …, priority 2023, dated 2024)", "key": {"[1]": {"tested_on": "primary cultured mouse hepatic stellate cells (HSC)", "test": "Inhibition of TGF-β-induced hepatic stellate cell activation (α-SMA labeling)", "type": "cell-based", "conditions": "1 µM compound, TGF-β 10 ng/mL, 24 hours; TGF-β alone 11.76 ± 1.47%, unstimulated 0.3 ± 0.04%; Mean ± SEM", "protocol": "After primary cultured mouse hepatic stellate cells (HSC) were plated on 96-well black-bottom permeable plates for 24 hours, they were pre-incubated with 1 µM compound E21 and solvent control 0.1% DMSO for 1 hour, and then TGF-β was added to a final concentration of 10 ng/mL, and continued to be cultured in a CO2 incubator for 24 hours. Then the culture medium was aspirated, the plates were washed with 37 °C PBS solution for 3 times, and 4% paraformaldehyde solution was added for 30 minutes for fixation. Then 0.15% Triton X-100 solution was added for permeabilization for 10 minutes; then 5% BSA solution was added for blocking at room temperature for 1 hour; then anti-α-SMA solution (1:300) prepared with 5% BSA solution was added and incubated at 4 °C overnight; the next day, Alexa-488 anti-rabbit fluorescent secondary antibody (1:1000) prepared with 5% BSA solution was added and incubated at room temperature for 1 hour in the dark. […] After the end, the cells were washed 3 times with PBS solution and fluorescence photography was performed. The FITC filter was used to shoot green fluorescence, and the DAPI filter was used to shoot blue fluorescence. ImageJ software was used to count the total number of cells in each field of view, and the number of α-SMA positive cells was manually counted. […]"}, "[2]": {"test": "Preliminary pharmacokinetic evaluation, plasma drug concentration after oral administration to mice", "type": "in vivo, ICR mice", "conditions": "male, ICR, mouse, oral 10 mg/kg, Mean ± SD, N = 3", "protocol": "The test compound was prepared according to the following solvent: an aqueous solution of DMSO/Tween 80/0.5% (m/v) CMC-Na at a ratio of 2:2:96 (v/v/v), with a drug concentration of 1 mg/mL. Then, the test compound was gavaged to mice at a dosage of 10 mL/kg, with a dose of 10 mg/kg. Each compound was administered to 3 mice. At 1h and 4h after administration, about 50 µL of blood was collected from the orbital venous plexus of the mouse and placed in a centrifuge tube containing EDTA-K2 anticoagulant."}, "[3]": {"test": "Tissue distribution in rats", "type": "in vivo, SD rats", "conditions": "2 hours after oral administration of 10 mg/kg, brain, heart, liver, spleen, lung, kidney, colon, muscle versus plasma (Figure 2)", "protocol": "(§1) Intravenous (IV) administration: the drug to be tested was dissolved in DMSO/Solutol/normal saline at a ratio of 5:5:90 (v/v/v), with a concentration of 0.2 mg/mL, and the administration volume was 5 mL/kg. Oral (PO) administration: the drug to be tested was dissolved in DMSO/Tween 80/0.5% CMC-Na solution at a ratio of 2:2:96 (v/v/v), with a concentration of 1 mg/mL, and the administration volume was 10 mL/kg.\nMale SD rats weighing 180-280g, 3 rats in each group, fasted for 12h before the experiment, had free access to water, and ate uniformly 4 h after administration. In the IV group, the rat tail vein was administered with a dose of 1mg/kg, and blood was collected at 0.083, 0.25, 0.5, 1.0, 2.0, 4.0, 6.0, 8.0, 12 and 24 h after administration. PO group, administered by gavage at a dose of 10 mg/kg, blood was collected at 0.25, 0.5, 1.0, 2.0, 4.0, 6.0, 8.0, 12 and 24 h after administration. At the above time points, 0.2 mL of blood was collected from the jugular vein and placed in an anticoagulant tube containing EDTA-K2. […] The drug concentration in the samples was quantified using LC-MS/MS method. Relevant pharmacokinetic parameters Tmax, Cmax, AUC0-∞, t1/2, etc. were calculated using WinNonlin software."}, "[4]": {"test": "Pharmacokinetics in rats (oral and intravenous)", "type": "in vivo, SD rats", "protocol": "as §1\nMale SD rats weighing 180-280g, 3 rats in each group, fasted for 12h before the experiment, had free access to water, and ate uniformly 4 h after administration. In the IV group, the rat tail vein was administered with a dose of 1mg/kg, and blood was collected at 0.083, 0.25, 0.5, 1.0, 2.0, 4.0, 6.0, 8.0, 12 and 24 h after administration. PO group, administered by gavage at a dose of 10 mg/kg, blood was collected at 0.25, 0.5, 1.0, 2.0, 4.0, 6.0, 8.0, 12 and 24 h after administration. At the above time points, 0.2 mL of blood was collected from the jugular vein and placed in an anticoagulant tube containing EDTA-K2. After the whole blood was collected, it was temporarily stored in an ice water bath, centrifuged at 11000 rpm for 5 min within 30min, the plasma was separated, and then frozen in a -70 °C refrigerator for testing. Tissue distribution group, oral administration, dose of 10mg/kg, 2h after drug administration, rats were anesthetized, bled through the abdominal aorta, and immediately dissected to collect brain, heart, liver, spleen, lung, kidney, colon, muscle. Part of the whole blood was collected and operated in an ice bath. The whole blood was centrifuged at 11000 rpm for 5 min within 30 min, and plasma (about 200 µL) was separated. After the tissue and plasma were collected, they were stored below -60 °C for testing. After each tissue was accurately weighed, the homogenizing reagent acetonitrile-water (1:1, v/v) was added for homogenization, wherein the raion of tissue to homogenizing reagent was 1:4 (g:mL). After homogenization, the samples were sonicated for 10 min, and the supernatant was taken after centrifugation for detection. The drug concentration in the samples was quantified using LC-MS/MS method. Relevant pharmacokinetic parameters Tmax, Cmax, AUC0-∞, t1/2, etc. were calculated using WinNonlin software."}, "[5]": {"test": "Liver microsome stability test, human"}, "[6]": {"conditions": "male, SD, rat, plasma, 1 mg/kg (IV)"}, "[7]": {"conditions": "male, SD, rat, plasma, 10 mg/kg (PO)"}}, "note": "Values joined by “and” are separate entries in the source; they are usually repeats but may differ in a detail not shown here. Equal values may be shown once."}
{"smiles": "Cn1c(=O)n(CCCO)c(=O)c2c1nc(C1(F)CCC(C(F)(F)F)CC1)n2Cc1ccc(Cl)cc1", "note": "(stereo not drawn) [Example E21, 7-(4-chlorobenzyl)-8-(1-fluoro-4-(trifluoromethyl)cyclohexyl)-1-(3-hydroxypropyl)-3-methyl-3,7-dihydro-1H-purine-2,6-dione]", "values": [{"measurement": "proportion of α-SMA-positive cells", "setting": "[1]", "result": "5.20 ± 0.74", "unit": "%"}]}
{"smiles": "Cn1c(=O)n(CCCO)c(=O)c2c1nc(C1(F)CCC(F)(F)CC1)n2Cc1ccc(F)c(Cl)c1", "note": "[Example E68, 7-(3-chloro-4-fluorobenzyl)-1-(3-hydroxypropyl)-3-methyl-8-(1,4,4-trifluorocyclohexyl)-3,7-dihydro-1H-purine-2,6-dione]", "values": [{"measurement": "concentration at 1 h", "setting": "[2]; 1h", "result": "2700 ± 54", "unit": "ng/mL"}, {"measurement": "concentration at 4 h", "setting": "[2]; 4h", "result": "1890 ± 213", "unit": "ng/mL"}, {"measurement": "concentration in each tissue", "setting": "[3]", "result": "significantly higher than that in plasma"}, {"measurement": "t1/2", "setting": "[4]; 10 mg/kg (PO), 10 mg/kg", "result": "4.88 ± 0.80", "unit": "h"}, {"measurement": "F", "setting": "[4]; 10 mg/kg (PO), oral bioavailability, 10 mg/kg", "result": "62.2% and 62.2 ± 15.9%"}, {"measurement": "AUC(0-inf)", "setting": "[4]; [6]", "result": "1170 ± 406", "unit": "ng·h/mL"}, {"measurement": "Cmax", "setting": "[4]; [6]", "result": "772 ± 92", "unit": "ng/mL"}, {"measurement": "clearance", "setting": "[4]; [6]", "result": "15.4 ± 4.98", "unit": "mL/min/kg"}, {"measurement": "half-life", "setting": "[4]; [6]", "result": "3.77 ± 2.14", "unit": "h"}, {"measurement": "Vd", "setting": "[4]; male, SD, rat, plasma, 1 mg/kg (IV), read-out: VSS", "result": "2.94 ± 0.79", "unit": "L/kg"}, {"measurement": "AUC(0-inf)", "setting": "[4]; [7]", "result": "7220 ± 1850", "unit": "ng·h/mL"}, {"measurement": "Tmax", "setting": "[4]; [7]", "result": 0.5, "unit": "h"}, {"measurement": "half-life", "setting": "[4]; [7]", "result": 4.88, "unit": "h"}, {"measurement": "Cmax", "setting": "[4]; male, rat, plasma, 10 mg/kg (PO), Mean±SD, N=3", "result": 1600, "unit": "ng/mL"}, {"measurement": "Stability Evaluation", "setting": "[5]; Human liver microsomes", "result": "Medium (30%<MF%<70%, medium metabolic stability)"}, {"measurement": "MF %", "setting": "[5]; Human liver microsomes, metabolic bioavailability", "result": 55.2, "unit": "%"}, {"measurement": "half-life at 1 µM", "setting": "[5]; human, liver microsomes, pH 7.4", "result": 2.2, "unit": "h"}]}
